{
  "source": "paper PMC7909954",
  "about": "(eLife, 2021)",
  "key": {"[1]": {"biological_target": "Y312W-hKOR (Homo sapiens, UniProt P41145, Y312W)", "sequence (P41145 whole entry Y312W)": "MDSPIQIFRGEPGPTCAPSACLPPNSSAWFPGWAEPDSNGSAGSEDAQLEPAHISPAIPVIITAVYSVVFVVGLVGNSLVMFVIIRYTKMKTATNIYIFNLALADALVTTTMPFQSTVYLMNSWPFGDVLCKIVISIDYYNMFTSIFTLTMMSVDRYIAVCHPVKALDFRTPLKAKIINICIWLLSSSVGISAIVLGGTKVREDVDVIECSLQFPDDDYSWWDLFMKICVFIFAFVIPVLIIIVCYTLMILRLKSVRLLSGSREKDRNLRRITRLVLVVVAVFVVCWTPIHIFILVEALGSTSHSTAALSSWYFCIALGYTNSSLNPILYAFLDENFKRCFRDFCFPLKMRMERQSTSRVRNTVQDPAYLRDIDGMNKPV", "assay": "cell-based"}, "[2]": {"biological_target": "T1, rKOR (Rattus norvegicus, UniProt P34975)", "T1 sequence (P34975 whole entry)": "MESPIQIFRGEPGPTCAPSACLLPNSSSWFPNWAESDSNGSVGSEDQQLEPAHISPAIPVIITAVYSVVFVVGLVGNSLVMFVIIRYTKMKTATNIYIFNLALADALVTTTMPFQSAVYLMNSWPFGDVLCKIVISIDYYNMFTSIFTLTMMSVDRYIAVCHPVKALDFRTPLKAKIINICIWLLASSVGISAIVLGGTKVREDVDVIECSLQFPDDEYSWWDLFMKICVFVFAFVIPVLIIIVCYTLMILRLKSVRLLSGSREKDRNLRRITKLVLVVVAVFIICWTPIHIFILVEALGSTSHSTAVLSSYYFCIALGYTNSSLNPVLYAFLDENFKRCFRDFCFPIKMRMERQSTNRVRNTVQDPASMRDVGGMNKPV", "assay": "cell-based"}, "[3]": {"biological_target": "T2, MOR (Homo sapiens, UniProt P35372)", "T2 sequence (P35372 whole entry)": "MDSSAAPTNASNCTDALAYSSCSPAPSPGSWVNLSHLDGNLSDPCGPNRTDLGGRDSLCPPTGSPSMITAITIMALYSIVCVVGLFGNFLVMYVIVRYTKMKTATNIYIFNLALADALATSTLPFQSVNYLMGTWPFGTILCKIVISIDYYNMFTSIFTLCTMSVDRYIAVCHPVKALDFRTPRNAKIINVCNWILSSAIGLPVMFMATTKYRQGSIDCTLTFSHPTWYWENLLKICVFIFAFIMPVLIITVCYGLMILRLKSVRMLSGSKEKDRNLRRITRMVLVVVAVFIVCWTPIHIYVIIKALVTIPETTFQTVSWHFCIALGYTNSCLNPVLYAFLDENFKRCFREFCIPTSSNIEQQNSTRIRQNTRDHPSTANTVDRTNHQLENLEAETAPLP"}, "[4]": {"biological_target": "mDOR (Mus musculus, UniProt P32300)", "sequence (P32300 whole entry)": "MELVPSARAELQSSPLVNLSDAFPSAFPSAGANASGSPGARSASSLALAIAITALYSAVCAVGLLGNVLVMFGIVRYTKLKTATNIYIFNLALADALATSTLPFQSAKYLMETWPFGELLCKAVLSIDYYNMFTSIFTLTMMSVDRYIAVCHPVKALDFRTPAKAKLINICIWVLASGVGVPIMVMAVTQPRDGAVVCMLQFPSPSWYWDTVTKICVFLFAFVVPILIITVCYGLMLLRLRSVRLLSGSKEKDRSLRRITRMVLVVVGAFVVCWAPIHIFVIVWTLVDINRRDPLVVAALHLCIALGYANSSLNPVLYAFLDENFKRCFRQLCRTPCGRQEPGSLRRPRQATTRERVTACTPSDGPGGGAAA", "assay": "cell-based"}, "[5]": {"biological_target": "T2, MOR", "assay": "Radioligand binding counter-screen (NIMH PDSP)", "set-up": "NIMH Psychoactive Drug Screening Program"}, "[6]": {"biological_target": "T1, rKOR", "settings": "BRET, rodent receptors"}, "[7]": {"biological_target": "T3, KOR (Homo sapiens, UniProt P41145)", "T3 sequence (P41145 whole entry)": "as the sequence (P41145 whole entry Y312W) above, with W312Y counted along it", "assay": "Radioligand binding counter-screen (NIMH PDSP)", "set-up": "NIMH Psychoactive Drug Screening Program"}, "[8]": {"biological_target": "T4, mMOR (Mus musculus, UniProt P42866)", "T4 sequence (P42866 whole entry)": "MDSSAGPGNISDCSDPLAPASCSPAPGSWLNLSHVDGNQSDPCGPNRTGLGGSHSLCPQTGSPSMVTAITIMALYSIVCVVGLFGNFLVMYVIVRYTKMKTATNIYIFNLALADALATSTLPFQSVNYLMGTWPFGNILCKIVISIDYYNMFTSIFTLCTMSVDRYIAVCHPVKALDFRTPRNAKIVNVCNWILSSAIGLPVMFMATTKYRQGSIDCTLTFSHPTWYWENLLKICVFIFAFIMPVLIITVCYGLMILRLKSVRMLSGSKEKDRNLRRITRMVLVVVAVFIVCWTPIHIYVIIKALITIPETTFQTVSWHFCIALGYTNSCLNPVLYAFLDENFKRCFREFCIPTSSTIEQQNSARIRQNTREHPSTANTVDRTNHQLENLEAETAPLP", "assay": "biochemical"}, "[9]": {"biological_target": "DOR (Homo sapiens, UniProt P41143)", "sequence (P41143 whole entry)": "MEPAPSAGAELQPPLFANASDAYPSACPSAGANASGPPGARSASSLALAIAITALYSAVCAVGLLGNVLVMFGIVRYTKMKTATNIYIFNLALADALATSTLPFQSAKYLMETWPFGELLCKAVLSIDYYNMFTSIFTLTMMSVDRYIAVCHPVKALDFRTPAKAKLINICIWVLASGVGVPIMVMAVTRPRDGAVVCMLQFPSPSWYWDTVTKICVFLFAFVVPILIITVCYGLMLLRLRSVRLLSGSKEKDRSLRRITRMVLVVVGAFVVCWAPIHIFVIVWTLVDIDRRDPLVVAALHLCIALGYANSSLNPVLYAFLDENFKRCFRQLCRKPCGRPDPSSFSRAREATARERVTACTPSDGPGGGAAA", "assay": "cell-based"}, "[10]": {"biological_target": "mKOR (Mus musculus, UniProt P33534)", "sequence (P33534 whole entry)": "as the sequence (P34975 whole entry) above, with E11D, A17S, P51S, V308A counted along it", "assay": "biochemical"}, "[11]": {"biological_target": "T5, SERT (Homo sapiens, UniProt P31645)", "T5 construct": "NIMH Psychoactive Drug Screening Program", "T5 sequence (P31645 whole entry, species assumed)": "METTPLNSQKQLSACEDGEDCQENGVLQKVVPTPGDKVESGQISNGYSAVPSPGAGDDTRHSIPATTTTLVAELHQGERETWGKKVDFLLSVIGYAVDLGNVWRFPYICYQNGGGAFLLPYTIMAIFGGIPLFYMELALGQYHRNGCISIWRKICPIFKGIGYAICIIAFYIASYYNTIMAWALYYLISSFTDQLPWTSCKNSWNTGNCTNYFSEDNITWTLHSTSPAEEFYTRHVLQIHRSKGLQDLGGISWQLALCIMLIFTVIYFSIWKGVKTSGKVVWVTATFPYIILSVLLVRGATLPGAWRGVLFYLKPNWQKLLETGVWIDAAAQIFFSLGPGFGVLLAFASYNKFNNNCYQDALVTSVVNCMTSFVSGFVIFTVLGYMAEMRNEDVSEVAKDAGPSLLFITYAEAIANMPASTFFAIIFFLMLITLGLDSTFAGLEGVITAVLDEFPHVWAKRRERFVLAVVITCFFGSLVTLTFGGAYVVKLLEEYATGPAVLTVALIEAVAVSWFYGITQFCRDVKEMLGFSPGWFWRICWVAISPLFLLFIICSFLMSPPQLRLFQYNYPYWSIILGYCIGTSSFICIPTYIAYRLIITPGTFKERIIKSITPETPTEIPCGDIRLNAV", "assay": "Radioligand binding counter-screen (NIMH PDSP)"}, "[12]": {"biological_target": "T4, mMOR", "assay": "cell-based", "set-up": "expressed in transfected cells; host or cells: HEK-293T"}, "[13]": {"biological_target": "T3, KOR", "assay": "cell-based"}, "[14]": {"system": "330 non-olfactory GPCRs", "assay": "PRESTO-Tango GPCRome β-arrestin recruitment off-target screen", "assay_type": "cell-based", "settings": "3 μM, follow-up concentration–response", "procedure": "To identify potential off-target activity of MP1207, we used the National Institutes of Mental Health Psychoactive Drug Screen Program. MP1207 was first tested for activity against 330 non-olfactory GPCRs using the PRESTO-Tango GPCRome screening β-arrestin recruitment assay at 3 μM MP1207. The activity at each receptor was measured in quadruplicate.\nScreening of compounds was accomplished using previously described methods with several modifications ([Kroeze et al., 2015]). First, HTLA cells were plated in DMEM with 2% dialyzed FBS and 10 U/mL penicillin-streptomycin. Next, the cells were transfected using an in-plate PEI method ([Longo et al., 2013]). PRESTO-Tango receptor DNAs were resuspended in OptiMEM and hybridized with PEI prior to dilution and distribution into 384-well plates and subsequent addition to cells. After overnight incubation, drugs diluted in DMEM with 1% dialyzed FBS were added to cells without replacement of the medium. The remaining steps of the PRESTO-Tango protocol were followed as previously described.\nAppendix 1—figure 6. […] MP1207 was screened against 330 non-olfactory GPCRs for agonism in the arrestin recruitment TANGO assay. […] MP1207 induces an increase in signal twofold over basal at opioid receptors predominantly at KOR and DOR and much less at MOR."}},
  "note": "Values joined by “and” are separate entries in the source; they are usually repeats but may differ in a detail not shown here. Identical values can stand only once. “Also recorded” adds a separate entry of the source.",
  "data": [
    {"compound": "NCc1cccc(C(=O)N[C@@H]2CCC3C4Cc5ccc(O)c6c5[C@@]3(CCN4CC3CC3)C2O6)c1", "note": "(stereo partly drawn) [MP1207, 3-(Aminomethyl)-N-((7R,12bS)−3-(cyclopropylmethyl)−9-hydroxy-2,3,4,4a,5,6,7,7a-octahydro-1H-4,12-methanobenzofuro[3,2-e]isoquinolin-7-yl)benzamide]", "values": [
      {"measurement": "EC50", "setting": "[1]", "value": 0.16, "unit": "nM"},
      {"measurement": "Emax", "setting": "[1]; read-out: Emax% cAMP inhibition Y312W-hKOR", "value": "95 ± 1.8", "unit": "%"},
      {"measurement": "EC50", "setting": "[2]", "value": 1.13, "unit": "nM"},
      {"measurement": "Emax", "setting": "[2]; HEK-293T, read-out: Emax% G protein activation (BRET) rKOR", "value": "32 ± 2.3", "unit": "%"},
      {"measurement": "arrestin recruitment at hMOR (in words)", "setting": "[3]", "value": "completely abolished"},
      {"measurement": "EC50", "setting": "[4]; EC50 G protein activation (BRET) mDOR", "value": 116, "unit": "nM"},
      {"measurement": "Emax", "setting": "[4]; HEK-293T, read-out: Emax% G protein activation (BRET) mDOR", "value": "52 ± 2.3", "unit": "%"},
      {"measurement": "Ki", "setting": "[5]", "value": 0.39, "unit": "nM"},
      {"measurement": "arrestin recruitment at rKOR (in words)", "setting": "[6]", "value": "No recruitment of βarrestin-2"},
      {"measurement": "Ki", "setting": "[7]", "value": 0.39, "unit": "nM"},
      {"measurement": "EC50", "setting": "[8]; EC50 mMOR [35S]GTPγS, ± SEM", "value": "1.3 nM and 1.29 nM"},
      {"measurement": "Emax", "setting": "[8]; read-out: Emax mMOR [35S]GTPγS", "value": "41 ± 1", "unit": "%"},
      {"measurement": "EC50", "setting": "[9]; EC50 cAMP inhibition hDOR", "value": 11.4, "unit": "nM"},
      {"measurement": "Emax", "setting": "[9]; HEK-293T, read-out: Emax% cAMP inhibition hDOR", "value": "38 ± 2", "unit": "%"},
      {"measurement": "EC50", "setting": "[10]; EC50 mKOR [35S]GTPγS, ± SEM", "value": "1.5 nM and 1.52 nM"},
      {"measurement": "Emax", "setting": "[10]; read-out: Emax mKOR [35S]GTPγS", "value": "39.3 ± 1.3", "unit": "%"},
      {"measurement": "Ki", "setting": "[11]", "value": 356, "unit": "nM"},
      {"measurement": "selectivity for MOR and KOR over the nearest non-opioid target", "setting": "[11]; from counter-screen Ki", "value": 900, "unit": "fold"},
      {"measurement": "arrestin recruitment at mMOR (in words)", "setting": "[12]", "value": "No recruitment of βarrestin-2"},
      {"measurement": "EC50", "setting": "[13]; EC50 arrestin recruitment (Tango) hKOR", "value": 3.97, "unit": "nM"},
      {"measurement": "Emax", "setting": "[13]; HTLA, read-out: Emax% arrestin recruitment (Tango) hKOR", "value": "37 ± 2", "unit": "%"},
      {"measurement": "agonism at 330 non-olfactory GPCRs (in words)", "setting": "[14]", "value": "selective for opioid receptors; also recorded: no potent activity was confirmed"}
    ]}
  ]
}
